This data set can be described thus: method code SF-AS, from DOI: 10.1080/01483918708066826.

With `O=C(O)C(c1ccc(Cl)cc1)n1cccc1` (stereo not given), the logP (commonly the decadic logarithm of the partition coefficient of the neutral form, usually between octanol and water) was 2.3.

For `O=C(O)C(c1ccccc1F)n1cccc1` (stereo not given), the logP turned out to be 2.49.

`O=C(O)Cn1cccc1` displayed a logP of 0.7.

Consider `O=C(O)C(Cc1ccc(O)cc1)n1cccc1` (stereo not given), for which the logP was 1.56.

Consider `O=C(O)c1ccccc1-n1cccc1`, for which the logP was found to be 2.04.

Regarding `O=C(O)C(Cc1ccc(Cl)cc1)n1cccc1` (stereo not given), the logP worked out at 2.08.

For the compound `O=C(O)C(c1ccccc1)n1cccc1` (stereo not given), the logP is 1.57.

As to `O=C(O)C(Cc1ccccc1)n1cccc1` (stereo not given), the logP is 2.34.

Take `O=C(O)Cc1ccc(-n2cccc2)cc1`: the log partition coefficient (logP) is 0.76.

As to `O=C(O)C(Cc1ccc(F)cc1)n1cccc1` (stereo not given), the logP came out at 2.04.

These data come from the SangsterLogP compilation.
